Experimental data: US10588934B2, “Opioid peptide” (priority 2014, dated 2020)
Like-named read-outs stand apart in the source and are kept apart here. Ends that are not written are not given here.

How the values were obtained:
Swiss mice [1] = test: Tail flick (tail removal) nociception test; type: in vivo, Mus musculus; conditions: for activity profile of the group given substance+naloxone compared with saline: with serial naloxone 4 mg/kg
Experimental: (§1) In vivo analyzes: Tests were carried out on Swiss mice of the Mus musculus species, in which nociception tests (hot plate and tail removal test) were used according to Le Bars et al. (2001). Injections were administered via intraperitoneal (IP). Doses were based upon dose and molaridade of the morphine (10 mg/kg animal).
(§2) FIGS. 1,2,3 and 4 represent the raw data obtained from the experiments after statistical analysis. The symbols (*, **, #) indicate the beginning of the statistically significant activity (S) or the statistically non-significant differences (NS). Analyzes of opioid activity were performed in two classical models of studies for this activity: Tail Flick or Hot Plate test.

Swiss mice [2] = type: in vivo, Mus musculus
Experimental: as §1, §2

trypsin = conditions: 37° C., 15 minutes to 4 hours, MALDI
Experimental: Representation of the fragments obtained at the different incubation times with the enzyme trypsin. Analysis performed by mass spectrometry, MALDI. The first spectrum, marked with the letter A, refers to the time of 15 minutes; The second spectrum marked with the letter B indicates the time of 30 minutes; C indicates the time of 1 hour; D indicates the time of 2 hours; E indicates the time of 4 hours and, finally, F is the control peptide (SEQ ID NO: 2).

With `C=CCN1CC[C@]23c4c5ccc(O)c4O[C@H]2C(=O)CC[C@@]3(O)[C@H]1C5` [naloxone, reference compound] the “activity profile of naloxone alone compared with saline” value (Swiss mice [1]; tail-flick, naloxone 4 mg/kg) was “no significant differences in activity profile” and the “activity profile of naloxone alone compared with saline” value (Swiss mice [2]; hot plate, naloxone 4 mg/kg) was “no significant differences in activity profile”.
For “SEQ ID NO: 1: opioid peptide of formula TyrProPhe-X1-TrpGlyGly-X2-ProPro (X1 Gly or Lys; X2 Ile or Val); exact sequence not printed in the text (YPFGWGGIPP)”, the “cumulative effect over time (area under the curve)” value (Swiss mice [1]; tail flick, compared with morphine and Leu-enkephalin) was “greater than morphine and similar to Leu-enkephalin”, the “time from which there was no significant difference from Leu-enkephalin (peptide positive control)” value (Swiss mice [1]; tail-flick, IP, Leu-enkephalin 19.3 mg/kg, P>0.05) was “no significant difference throughout the assay” and the “time at which statistically significant antinociceptive action started, in relation to saline” value (Swiss mice [1]; tail-flick, IP, dose equimolar to morphine 10 mg/kg, test of 240 min) was 90 min. For the same compound, the “time from which there was no significant difference from morphine (positive control)” value (Swiss mice [1]; tail-flick, IP, morphine 10 mg/kg) was 90 min, the “time up to which the significant antinociceptive action lasted, in relation to saline” value (Swiss mice [1]; tail-flick, IP, test of 240 min) was 240 min and the “difference between peptide alone and peptide+naloxone (naloxone reversal)” value (Swiss mice [1]; tail-flick, serial hourly naloxone 4 mg/kg, P<0.001) was “Except for the time of 30 min, there were significant differences”. For the same compound, the “activity profile of the group given substance+naloxone compared with saline” value (Swiss mice [1]; tail-flick) was “no significant differences in activity profile”, the “time from which there were no statistically significant differences from morphine” value (Swiss mice [2]; hot plate, IP, morphine 10 mg/kg, P>0.05) was 60 min and the “persistence of the significant difference in relation to saline” value (Swiss mice [2]; hot plate, IP, test of 240 min) was “at the time of 120 minutes, there was no significant difference”. For the same compound, the “time at which statistically significant antinociceptive activity started, in relation to saline” value (Swiss mice [2]; hot plate, IP, test of 240 min) was 60 min, the “difference between peptide alone and peptide+naloxone (naloxone reversal)” value (Swiss mice [2]; hot plate, serial naloxone 4 mg/kg, later discontinued) was “no significant differences only at 210 minutes and 240 minutes” and the “activity after administration of naloxone was discontinued” value (Swiss mice [2]; hot plate, substance+naloxone group) was “returned to action”. For the same compound, the “cumulative effect over time (area below the curve)” value (Swiss mice [2]; mouse, in vivo) was “higher cumulative effect similar to morphine and Leu-encefaiina” and the “difference from Leu-enkephalin” value (Swiss mice [2]; mouse, in vivo) was “no statistically significant differences”.
For “YGGFL [Leu-enkephalin, reference compound]”, the “activity profile of the group given substance+naloxone compared with saline” value (Swiss mice [1]; tail-flick) was “no significant differences in activity profile”, the “activity after administration of naloxone was discontinued” value (Swiss mice [2]; mouse, in vivo) was “activity has also been resumed” and the “activity profile of the group given substance+naloxone compared with saline” value (Swiss mice [2]; mouse, in vivo) was “no significant differences in activity profile”.
YPFKWGGVPP [SEQ ID NO: 2] was tested, and the “intensity of the major (precursor ion) peak during incubation with the enzyme” value (trypsin) was “will reduce its intensity”.
